Measurements taken from patent publication US20250162989A1, “USP30 INHIBITORS AND USES THEREOF” (Vincere Biosciences, Inc., priority 2021, published 2025).
Like-named read-outs stand apart in the source and are kept apart here.

Tests used:
[1] = biological target: recombinant USP30 (amino acids 57-517 of the human sequence) (Homo sapiens (Human), UniProt Q70CQ3); assay: In vitro USP30 biochemical assay (Ubiquitin-Rhodamine substrate); conditions: fluorescence
Experimental: In vitro biochemical assay to establish the potency of compounds for USP30 inhibition: a 384-well plate assay using a fluorophore tagged substrate of USP30 was used for in vitro screening of compounds. Each compound was tested at
10 different concentrations (0.5 to 10,000 nM) in duplicate wells. […] Data were analyzed using Graph Pad Prism software with a four-parameter (floating slope) fit to log concentration data to determine IC50s.

[2] = Kinetic solubility; type: physicochemical; conditions: 100 mM PBS, 1 hour at room temperature
Experimental: To 396 μL of a 100 mM phosphate buffered saline (PBS) was added 4 μL of a 10 mM stock solution of the compound. The mixture was shaken at 1000 rpm for 1 hour at room temperature. […] Compound concentration was calculated by comparison to a standard calibration curve. The assay was done in duplicate. The results are reported in μMol.

[3] = system: Tom20 loss in differentiated RenCell VM; assay: In-cell Tom20 loss assay; type: cell-based; conditions: 20 h after compound addition
Experimental: To evaluate Tom20 loss following treatment with compounds and/or antimycin/oligomycin, a 96-well plate assay was performed on differentiated RenCell VM. These were seeded into laminin-coated 96-well plates at 5000 cells/well in normal growth medium (ReNcell NSC maintenance medium+20 ng/ml FDF-2 and 20 ng/ml EGF). After 3 days, growth medium was replaced with differentiation medium (ReNCell NSC medium+0.1 mM dibutyryl cAMP and 2 ng/ml GDNF). On days 1 and 4 following addition of differentiation medium, the media was removed and replaced with fresh differentiation medium. […] After again washing with PBS, cells were imaged using GE INCell 6000 at 40× and quantified using HCA-based quantification algorithm of fluorescence density×area normalized to the number of nuclei.

[4] = biological target: USP30 (Homo sapiens (Human), UniProt Q70CQ3); assay: Dundee MALDI-TOF mass spectrometry assay (K48-linked diubiquitin cleavage); type: biochemical; conditions: USP30 25 ng/μl, K48-linked diubiquitin 5.6 μM
Experimental: USP30 was diluted in a buffer containing 40 mM Tris, 0.01% BSA, 1 mM DTT and K48 in 40 mM Tris, 0.01% BSA.
The compounds were pre-incubated with the USP30 for 5 mins at room temp before the K48 dimer addition. The assay mixture was then incubated for 45 mins at room temp. The assay was stopped by the addition of TFA to a final concentration of 2% (v/v).
Acidified samples of the DUB assays were mixed with 0.5 mM 15N-ubiquitin and then with one part of 2% (v/v) TFA and one part of 2.5 DHAP matrix solution (7.6 mg of 2.5 DHAP in […] ethanol and […] of an aqueous 12 mg ml 1 diammonium hydrogen citrate).

[5] = 1.5 nM recombinant USP30, 25 nM Ubiquitin-Rhodamine
[6] = […] recombinant USP30, 25 nM Ubiquitin-Rhodamine

recombinant USP30 (amino acids 57-517 of the human sequence), sequence (Q70CQ3 57-517): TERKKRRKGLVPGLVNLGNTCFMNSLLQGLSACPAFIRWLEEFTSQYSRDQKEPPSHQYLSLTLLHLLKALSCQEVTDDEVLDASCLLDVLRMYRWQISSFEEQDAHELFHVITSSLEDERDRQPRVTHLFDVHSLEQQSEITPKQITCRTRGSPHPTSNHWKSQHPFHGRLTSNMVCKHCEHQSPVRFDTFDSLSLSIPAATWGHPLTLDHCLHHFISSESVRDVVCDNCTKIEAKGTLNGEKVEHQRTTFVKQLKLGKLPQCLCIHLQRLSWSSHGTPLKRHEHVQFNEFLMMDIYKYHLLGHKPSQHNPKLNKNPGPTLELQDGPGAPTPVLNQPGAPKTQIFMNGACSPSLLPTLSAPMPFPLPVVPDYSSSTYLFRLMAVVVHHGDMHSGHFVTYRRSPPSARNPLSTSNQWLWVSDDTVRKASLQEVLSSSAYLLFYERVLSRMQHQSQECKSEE
USP30, sequence (Q70CQ3 whole entry): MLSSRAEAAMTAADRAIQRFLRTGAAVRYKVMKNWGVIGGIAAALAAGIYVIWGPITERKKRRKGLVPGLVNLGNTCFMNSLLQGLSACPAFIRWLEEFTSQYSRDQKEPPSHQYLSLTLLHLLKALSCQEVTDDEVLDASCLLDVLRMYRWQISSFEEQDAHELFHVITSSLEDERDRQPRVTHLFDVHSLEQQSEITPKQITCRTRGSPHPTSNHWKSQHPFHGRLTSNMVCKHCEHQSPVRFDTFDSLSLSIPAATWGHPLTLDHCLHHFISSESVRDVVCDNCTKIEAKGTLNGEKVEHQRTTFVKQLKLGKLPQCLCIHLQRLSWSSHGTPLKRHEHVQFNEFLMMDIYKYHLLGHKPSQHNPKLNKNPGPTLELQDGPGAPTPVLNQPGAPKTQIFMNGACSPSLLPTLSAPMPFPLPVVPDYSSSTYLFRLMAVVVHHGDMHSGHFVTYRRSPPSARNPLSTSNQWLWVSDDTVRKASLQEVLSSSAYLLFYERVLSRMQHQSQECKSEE

| IC50 [1, 5] | Kinetic Solubility (μMol) [2] | IC50 [1, 6] | IC50 [3] | IC50 ([4]; read-out: IC50) | IC50 ([4]; read-out: USP30 IC50 μM (avg)) | Compound |
| --- | --- | --- | --- | --- | --- | --- |
| 0.05 to 1 µM | D (solubility of <1.0 μMol) | – | – | – | – | CC(C)(C)NS(=O)(=O)c1ccc(NC(=O)[C@H](Cc2ccc(-c3ccccc3)cc2)NC(=O)c2ccc(F)cc2)cc1 [Compound I-60] |
| 0.05 to 1 µM | A (solubility of ≥75.0 μMol) | – | – | – | – | CN1CCC(C[C@H](NC(=O)c2ccc(F)cc2)C(=O)Nc2ccc(S(=O)(=O)NC(C)(C)C)cc2)CC1 [Compound I-41] |
| – | – | < 0.05 µM | < 500 nM | – | – | CC(C)C[C@H](NC(=O)c1ccc(F)cc1)C(=O)Nc1ccc(S(=O)(=O)NC(C)(C)C)cc1 [Compound I-11] |
| – | – | < 0.05 µM | < 500 nM | < 0.05 µM | – | CC(C)(C)NS(=O)(=O)c1ccc(NC(=O)[C@H](CC2CCOCC2)NC(=O)c2ccc(F)cc2)cc1 [Compound I-1] |
| 0.05 to 1 µM | A (solubility of ≥75.0 μMol) | – | – | – | – | CCN1CCC(C[C@H](NC(=O)c2ccc(F)cc2)C(=O)Nc2ccc(S(=O)(=O)NC(C)(C)C)cc2)CC1 [Compound I-42] |
| – | D (solubility of <1.0 μMol) | < 0.05 µM | – | – | – | CC(C)CC[C@H](NC(=O)c1ccc(F)cc1)C(=O)Nc1ccc(S(=O)(=O)NC(C)(C)C)cc1 [Compound I-23] |
| 0.05 to 1 µM | D (solubility of <1.0 μMol) | – | – | – | – | CC(C)(CCO)NS(=O)(=O)c1ccc(NC(=O)[C@H](Cc2ccc(-c3ccccc3)cc2)NC(=O)c2ccc(F)cc2)cc1 [Compound I-59] |
| 0.05 to 1 µM | – | – | – | – | < 0.05 µM | COc1cc(NC(=O)[C@H](Cc2ccccc2)NC(=O)c2ccc(F)cc2)ccc1S(=O)(=O)N[C@H](C)CO [Compound I-137] |
| – | – | < 0.05 µM | – | – | < 0.05 µM | CC(=O)N1CCC(CC(NC(=O)c2ccc(F)cc2)C(=O)Nc2ccc(S(=O)(=O)NC(C)(C)C)cc2)CC1 (centres unmarked) [Compound I-101] |
| – | – | < 0.05 µM | – | – | < 0.05 µM | CNCCN1CCC(C[C@H](NC(=O)c2ccc(F)cc2)C(=O)Nc2ccc(S(=O)(=O)NC(C)(C)C)cc2)CC1 [Compound I-171] |
| 0.05 to 1 µM | – | – | – | – | < 0.05 µM | CN1CCC(C[C@H](NC(=O)c2ccc(F)cc2)C(=O)Nc2ccc(S(=O)(=O)NC(C)(C)C(F)(F)F)cc2)CC1 [Compound I-158] |
| 0.05 to 1 µM | – | – | – | – | 0.05 to 1 µM | CC(C)(C)NS(=O)(=O)c1ccc(NC(=O)[C@H](Cc2ccccc2)NC(=O)c2ccon2)cc1 [Compound I-167] |
| 0.05 to 1 µM | – | – | – | < 0.05 µM | – | CCNS(=O)(=O)c1ccc(NC(=O)[C@H](Cc2ccccc2)NC(=O)c2ccc(F)cc2)cc1O [Compound I-67, (S)—N-(1-(4-(N-ethylsulfamoyl)-3-hydroxyphenylamino)-1-oxo-3-phenylpropan-2-yl)-4-fluorobenzamide] |
| – | – | < 0.05 µM | – | – | < 0.05 µM | COCCN1CCC(C[C@H](NC(=O)c2ccc(F)cc2)C(=O)Nc2ccc(S(=O)(=O)NC(C)(C)C)cc2)CC1 [Compound I-173] |
| 0.05 to 1 µM | D (solubility of <1.0 μMol) | – | – | – | – | CC(C)(C)NS(=O)(=O)c1ccc(NC(=O)[C@@H](NC(=O)c2ccc(F)cc2)C(C)(C)c2ccccc2)cc1 [Compound I-61] |
| 0.05 to 1 µM | – | – | – | – | < 0.05 µM | CC(=O)CN1CCC(C[C@H](NC(=O)c2ccc(F)cc2)C(=O)Nc2ccc(S(=O)(=O)NC(C)(C)C)cc2)CC1 [Compound I-172] |
| 0.05 to 1 µM | – | – | – | – | < 0.05 µM | CC(C)(C)NS(=O)(=O)c1ccc(NC(=O)[C@H](Cc2ccccc2)NC(=O)c2nccs2)cc1 [Compound I-168] |
| 0.05 to 1 µM | – | – | – | – | < 0.05 µM | CC(CO)(CO)NS(=O)(=O)c1ccc(NC(=O)[C@H](Cc2ccccc2)NC(=O)c2ccc(F)cc2)cc1 [Compound I-132] |
| 1 to 10 µM | C (solubility ≥1.0 μMol and <50.0 μMol) | – | – | – | – | CC(C)(CO)NS(=O)(=O)c1ccc(NC(=O)[C@@H](NC(=O)c2ccc(F)cc2)C(C)(C)c2ccccc2)cc1 [Compound I-62] |

Second part, the compound before the results:

| Compound | IC50 [1, 5] | Kinetic Solubility (μMol) [2] | IC50 [1, 6] | IC50 [3] | IC50 ([4]; read-out: IC50) | IC50 ([4]; read-out: USP30 IC50 μM (avg)) |
| --- | --- | --- | --- | --- | --- | --- |
| CC(C)(C)NS(=O)(=O)c1ccc(NC(=O)[C@H](CC2CCOCC2)NC(=O)c2ccc(F)cn2)cc1 [Compound I-177] | – | – | < 0.05 µM | – | – | < 0.05 µM |
| COc1cc(NC(=O)[C@H](CC2CCNCC2)NC(=O)c2ccc(F)cc2)ccc1S(=O)(=O)N[C@@H]1CCOC1 [Compound I-110] | 0.05 to 1 µM | – | – | – | – | 0.05 to 1 µM |
| CC(C)(CF)NS(=O)(=O)c1ccc(NC(=O)[C@H](CC2CCOCC2)NC(=O)c2ccc(F)cc2)cc1 [Compound I-112] | – | – | < 0.05 µM | – | – | < 0.05 µM |
| CC(C)C[C@H](NC(=O)c1ccc(F)cc1)C(=O)Nc1ccc(S(=O)(=O)NC(C)(C)CCO)cc1 [Compound I-20, (S)-4-fluoro-N-(1-((4-(N-(4-hydroxy-2-methylbutan-2-yl)sulfamoyl)phenyl)amino)-4-methyl-1-oxopentan-2-yl)benzamide] | 0.05 to 1 µM | B (solubility of ≥50.0 μMol and <75.0 μMol) | – | – | – | – |
| O=C(N[C@@H](CC1CCOCC1)C(=O)Nc1ccc(S(=O)(=O)NC2CCOCC2)cc1)c1ccc(F)cc1 [Compound I-128] | 0.05 to 1 µM | – | – | – | – | < 0.05 µM |
| O=C(N[C@@H](Cc1ccccc1)C(=O)Nc1ccc(S(=O)(=O)NC2COC2)c(O)c1)c1ccc(F)cc1 [Compound I-66] | 0.05 to 1 µM | B (solubility of ≥50.0 μMol and <75.0 μMol) | – | – | < 0.05 µM | – |
| N#CN1CC[C@@H](NC(=O)[C@H](Cc2ccccc2)NC(=O)c2ccc(F)cc2)C1 [Compound I-125] | 0.05 to 1 µM | – | – | – | – | 0.05 to 1 µM |
| O=C(N[C@@H](Cc1ccccc1)C(=O)Nc1ccc(S(=O)(=O)NC2(CO)CC2)nc1)c1ccc(F)cc1 [Compound I-150] | 0.05 to 1 µM | – | – | – | – | < 0.05 µM |
| COc1cc(NC(=O)[C@H](CC2CCN(C)CC2)NC(=O)c2ccc(F)cc2)ccc1S(=O)(=O)NC(C)(C)C [Compound I-84] | 0.05 to 1 µM | – | – | – | – | < 0.05 µM |
| CN1CCC(C[C@H](NC(=O)c2ccc(F)cc2)C(=O)Nc2ccc(S(=O)(=O)N[C@@H]3CCOC3)nc2)CC1 [Compound I-105] | 0.05 to 1 µM | – | – | – | – | 0.05 to 1 µM |
| O=C(N[C@@H](CC1CCOCC1)C(=O)Nc1ccc(S(=O)(=O)NC2CCOCC2)nc1)c1ccc(F)cc1 [Compound I-133] | 0.05 to 1 µM | – | – | – | – | < 0.05 µM |
| Cn1ccc(N2CCC(C[C@H](NC(=O)c3ccc(F)cc3)C(=O)Nc3ccc(S(=O)(=O)NC(C)(C)C)nc3)CC2)n1 [Compound I-293] | – | – | < 0.05 µM | – | – | < 0.05 µM |
| CC(C)(C)NS(=O)(=O)c1ccc(NC(=O)[C@H](CC2CCNCC2)NC(=O)c2ccc(F)cn2)cc1 [Compound I-175, (S)—N-(1-((4-(N-(tert-butyl)sulfamoyl)phenyl)amino)-1-oxo-3-(piperidin-4-yl)propan-2-yl)-5-fluoropicolinamide] | – | A (solubility of ≥75.0 μMol) | < 0.05 µM | – | – | < 0.05 µM |
| CN1CCC(C[C@H](NC(=O)c2ccc(F)cc2)C(=O)Nc2ccc(S(=O)(=O)NC(C)(C)C)nc2)CC1 [Compound I-78] | 0.05 to 1 µM | A (solubility of ≥75.0 μMol) | – | – | – | < 0.05 µM |
| COc1cc(NC(=O)[C@H](CC2CCNCC2)NC(=O)c2ccc(F)cc2)ccc1S(=O)(=O)NC(C)(C)CF [Compound I-209] | 0.05 to 1 µM | – | – | – | – | 0.05 to 1 µM |
| COc1cc(NC(=O)[C@H](CC2CCNCC2)NC(=O)c2ccc(F)cc2)ccc1S(=O)(=O)NC1COC1 [Compound I-109, (S)-4-fluoro-N-(1-((3-methoxy-4-(N-(oxetan-3-yl)sulfamoyl)phenyl)amino)-1-oxo-3-(piperidin-4-yl)propan-2-yl)benzamide] | 0.05 to 1 µM | – | – | – | – | < 0.05 µM |
